{
  "source": "patent US11872093B1",
  "about": "“Method of marking lesions” (NoduGloH LLC, priority 2022, dated 2024)",
  "origin": "cited, not measured here",
  "details": "ICG dye marking without use of a coil",
  "data": [
    {"compound": "CC1(C)C(/C=C/C=C/C=C/C=C2\\N(CCCCS(=O)(=O)O)c3ccc4ccccc4c3C2(C)C)=[N+](CCCCS(=O)(=O)[O-])c2ccc3ccccc3c21", "note": "[ICG dye, Indocyanine Green]", "values": [
      {"measurement": "persistence of dye effect after marking without a coil", "result": "fade away over several hours"}
    ]}
  ]
}
